Reference: US11690824B2, “Antibacterial compounds” (THE GENERAL HOSPITAL CORPORATION, priority 2018, dated 2023)
≈ marks a conversion by molar mass, not a printed value.

Tests used:
[1] = tested on: MRSA MW2 persisters (stationary phase); assay: Persister killing assay; format: cell-based, S. aureus
Procedure: Persister killing assay. […] Persister cells of MRSA MW2 were prepared by growing cultures overnight to stationary phase at 37° C. at 200 rpm and washing 3 times with PBS. 1 mL of ˜2×10^8 CFU/mL MRSA persisters was added to 1 mL of PBS containing 2-fold of the desired concentration of antibiotics in a 96-well assay block (Corning Costar 3960). The assay block was incubated at 37° C., with shaking at 200 rpm. At specific times, […] were removed, washed once with PBS, serially diluted and spot-plated on TSA plates. Colonies were counted to enumerate the number of live cells after overnight incubation at 37° C. These experiments were conducted in biological triplicate.

MRSA MW2 [2] = assay: Transmission electron microscopy; conditions: 4× MIC for 2 h
A. baumannii ATCC 17978 = assay: MIC assay; format: cell-based, Acinetobacter baumannii; conditions: Acinetobacter baumannii, ATCC17978; A. baumannii ATCC 17978; read-out: Minimum inhibitory concentration
Description: (§1) Bacterial strains, growth conditions, and persister isolation. Methicillin-resistant S. aureus strains, MW2 BAA-1707, ATCC 33591, and JE2, methicillin-susceptible S. aureus strains, NCTC 8325, Newman, and ATCC 29213, vancomycin-resistant S. aureus strain, VRS1, Enterococcus faecium E007, vancomycin-resistant E. faecium strains, C68,^7 WB312, and WC196, Klebsiella pneumoniae WGLW2 (BEI Resources, Manassas, Va., USA), Acinetobacter baumannii ATCC 17978, Pseudomonas aeruginosa PA14, and Enterobacter aerogenes ATCC 13048 were used to test antimicrobial activity (Table 1). S. aureus strains were grown in tryptic soy broth (TSB) (BD, Franklin Lakes, N.J., USA), and E. faecium was grown in brain-heart infusion (BHI) broth (BD, Franklin Lakes, N.J., USA) at 37° C. K. pneumoniae, A. baumannii, P. aeruginosa, and E. aerogenes were grown in Luria Bertani (LB) broth (BD, Franklin Lakes, N.J., USA) at 37° C.
(§2) Minimal inhibitory concentration (MIC) assay. The MICS of antibiotics were determined by the standard micro-dilution method recommended by the Clinical and Laboratory Standards Institute. MIC assays were conducted in biological triplicate.

[3] = tested on: S. aureus and Enterococcus faecium clinical strains; assay: MIC against a panel of clinical strains; format: cell-based; conditions: panel incl. multidrug-resistant MW2 and VRS1; read-out: minimal inhibitory concentration (MIC)
Description: as §1, §2

MRSA MW2 [4] = assay: Deep-seated mouse thigh infection model; format: in vivo; conditions: 5 days
Procedure: Deep-seated mouse thigh infection model. In vivo efficacy of nTZDpa alone or in combination with gentamicin against MRSA persisters was evaluated by a previously described neutropenic mouse thigh infection model with modifications. Six-week-old female CD-I mice (20-25 g, Charles River Laboratories, Wilmington, Mass., USA) were obtained from Charles River Laboratories (Wilmington, Mass., USA). The CD-I mice were rendered neutropenic by administering 150 mg/kg and 100 mg/kg of cyclophosphamide intraperitoneally (i.p.) at 4 days and 1 day before infection, respectively. On the day of infection, overnight culture of MRSA MVV2 was washed 3-time with sterile saline and diluted to 10^7 CFU/ml in the saline. 50 μl of the diluted culture (5×10^5 CFU per mouse) was injected to the right thigh of each mouse. nTZDpa was dissolved in Kolliphor EL (Sigma-Aldrich, St Louis, Mo., USA)/ethanol 1:1 and then diluted 1:10 in saline to a final concentration of 50 mg/kg. At 24 h post-infection, groups of mice (n=10) were treated with 30 mg/kg gentamicin subcutaneously (s.c.) every 12 h, 25 mg/kg vancomycin i.p. every 24 h, 50 mg/kg nTZPpa i.p. every 24 h, or the combination of 50 mg/kg nTZDpa i.p. every 24 h and 30 mg/kg gentamicin s.c. every 12 h for 5 days. Control mice were injected with 250 μl of 10% Kolliphor EL/ethanol in saline i.p. every 24 h for 5 days. Mice were euthanized at 96 h post-infection. Blood was collected by cardiac puncture, and the infected thighs were aseptically excised, weighed, and stored at 4° C. until homogenization. To evaluate hepatic and renal toxicities, the levels of alanine aminotransferase and blood urea nitrogen were analyzed with commercially available kits, following the manufacturer's protocol (Pointe Scientific, Canton, Mich., USA). Thighs were homogenized in PBS, serially diluted with PBS, and spot-plated on TSA plates. […] Statistical significance among each group was analyzed by one-way ANOVA with post-hoc Tukey test using PASW Statistics 18 (SPSS Inc. Chicago, Ill., USA).

GUVs DOPC/DOPG (7:3) = assay: Giant unilamellar vesicles (GUVs), observation of compound effects; conditions: 4 μg/ml (1× MIC)
Procedure: Preparation of giant unilamellar vesicles (GUVs) and observation of compound effects on GUVs. GUVs were prepared by the electroformation method described previously. Dioleoyl-glycero-phosphocholine (DOPC), Dioleoyl-glycero-phosphoglycerol (DOPG) and Dioleoyl-glycero-phosphoethanolamine-N-lissamine rhodamine B sulfonyl (18:1 Liss Rhod PE) were purchased from Avanti Polar Lipids (Alabaster, Ala., USA). 4 mM of a lipid mixture consisting of DOPC/DOPG/18:1 Liss Rhod PE (7:3:0.005) was dissolved in chloroform. Indium tin oxide (ITO)-coated slides (50×75×1.1 mm, Delta Technologies, Loveland, Colo., USA) were coated with 40 μL of the lipid mixture and dried in a vacuum chamber for 2 h to remove chloroform. An electroformation chamber was made by placing a 2 mm thick Teflon spacer between the two lipid-coated ITO slides. After adding 2 mL of 100 mM sucrose into the electrofomation chamber, the chamber was sealed with binder clips, and then connected to an AC field function generator. The swelling of the lipid bilayers was facilitated by applying an electric AC-field (10 Hz). […] GUVs were detached from surfaces by reducing the AC-field from 10 Hz to 5 Hz for 20 min. The GUV suspension was diluted (1:30) in a 100 mM glucose solution. 49 μL of the diluted GUV suspension (˜100 vesicles) was added to a black, clear-bottom 384-well plate (Corning no. 3712). […]

With `O=C(O)c1c(Sc2ccccc2)c2cc(Cl)ccc2n1Cc1ccc(Cl)cc1` [nTZDpa] the persister killing ([1]; 8 μg/ml nTZDpa and 80 μg/ml gentamicin) was 3 logs, the “time to eradicate 100% of persisters” value ([1]; 16 μg/ml nTZDpa and 10 μg/ml gentamicin) was no more than 3 h and the “killing of MRSA persisters in combination” value ([1]; 16 μg/ml nTZDpa combined with 10× MIC of other aminoglycosides) was “synergistic killing of MRSA persisters”. The “reduction of MRSA persisters” value ([1]; 32 μg/mL) was roughly 2 log, the “time to complete eradication of persisters” value ([1]; 64 μg/mL, ~5×10^7 CFU/mL) was no more than 2 h and the “cell morphology by TEM” value (MRSA MW2 [2]) was “formation of mesosome-like structures in most cells, abnormal cell division, and cell lysis”. For the same molecule, the MIC (A. baumannii ATCC 17978) was greater than 64 µg/mL, the MIC [3] was roughly 4 µg/mL (≈ 9.34 µM) and the “persister cells killed in thigh” value (MRSA MW2 [4]; 50 mg/kg nTZDpa i.p. with 30 mg/kg gentamicin s.c., p<0.001) was roughly 95%. The “MRSA CFUs / viability of persisters in thigh, single agent” value (MRSA MW2 [4]; vancomycin 25 mg/kg i.p., gentamicin 30 mg/kg s.c., nTZDpa 50 mg/kg i.p.) was “no effect on the viability of persisters”, the “time to formation of lipid aggregates on the surface of GUVs” value (GUVs DOPC/DOPG (7:3)) was 10 s and the “time to rupture of GUVs” value (GUVs DOPC/DOPG (7:3)) was 60 s.
